Data taken from US8741897B2, “Glucocorticoid mimetics, methods of making them, pharmaceutical compositions and uses thereof” (Boehringer Ingelheim Pharmaceuticals Inc., priority 2003, dated 2014).

Test system: glucocorticoid receptor function
Experiment: one or more of the above assays (GR binding and glucocorticoid receptor cell assays: aromatase, IL-6, TAT, MMTV-Luc, IL-8, ICAM-Luc)
Assay type: cell-based
Conditions: assay not specified per compound

| Structure (SMILES) | activity as agonists of the glucocorticoid receptor function in one or more of the above assays |
| --- | --- |
| CC(C)(CC(O)(Cc1cc2nc(CN)ccc2[nH]1)C(F)(F)F)c1cc(Cl)cc2c1OCC2 (stereo not drawn) [2-(5-Aminomethyl-1H-pyrrolo[3,2-b]pyridin-2-ylmethyl)-4-(5-chloro-2,3-dihydrobenzofuran-7-yl)-1,1,1-trifluoro-4-methylpentan-2-ol] | potent agonists |
| CCC(=O)c1ccc2[nH]c(CC(O)(CC(C)(C)c3cc(Cl)cc4c3OCC4)C(F)(F)F)cc2n1 (stereo not drawn) [1-{2-[4-(5-Chloro-2,3-dihydrobenzofuran-7-yl)-2-hydroxy-4-methyl-2-trifluoromethylpentyl]-1H-pyrrolo[3,2-b]pyridin-5-yl}propan-1-one] | potent agonists |
| COc1ccc(-c2ccccc2Cl)cc1C(C)(C)CC(O)(Cc1cc2cc(N3CCOCC3)ncc2[nH]1)C(F)(F)F (stereo not drawn) [4-(2′-Chloro-4-methoxybiphenyl-3-yl)-1,1,1-trifluoro-4-methyl-2-(5-morpholin-4-yl-1H-pyrrolo[2,3-c]pyridin-2-ylmethyl)pentan-2-ol] | potent agonists |
| CC(C)(CC(O)(Cc1cc2cc(Cl)ncc2[nH]1)C(F)(F)F)c1cc(Br)ccc1O (stereo not drawn) [4-Bromo-2-[3-(5-chloro-1H-pyrrolo[2,3-c]pyridin-2-ylmethyl)-4,4,4-trifluoro-3-hydroxy-1,1-dimethylbutyl]phenol] | potent agonists |
| CN1C=CC2=CC(CC(O)(CC(C)(C)c3cc(Cl)cc4c3OCC4)C(F)(F)F)NC2=C1 (stereo not drawn) [4-(5-Chloro-2,3-dihydrobenzofuran-7-yl)-1,1,1-trifluoro-4-methyl-2-(6-methyl-1H-pyrrolo[2,3-c]pyridin-2-ylmethyl)pentan-2-ol] | potent agonists |
| COc1cc(F)ccc1C(C)(C)CC(O)(Cc1cc2c(C)cncc2[nH]1)C(F)(F)F (stereo not drawn) [1,1,1-Trifluoro-4-(4-fluoro-2-methoxyphenyl)-4-methyl-2-(4-methyl-1H-pyrrolo[2,3-c]pyridin-2-ylmethyl)pentan-2-ol] | potent agonists |
| CC(C)(CC(O)(Cc1cc2cnccc2[nH]1)C(F)F)c1cc(F)ccc1O (stereo not drawn) [2-[4,4-Difluoro-3-hydroxy-1,1-dimethyl-3-(1H-pyrrolo[3,2-c]pyridin-2-ylmethyl)butyl]-4-fluorophenol] | agonists |
| CCN(CC)c1cc2cc(CC(O)(CC(C)(C)c3cc(F)ccc3C)C(F)(F)F)[nH]c2cn1 (stereo not drawn) [2-(5-Diethylamino-1H-pyrrolo[2,3-c]pyridin-2-ylmethyl)-1,1,1-trifluoro-4-(5-fluoro-2-methylphenyl)-4-methylpentan-2-ol] | potent agonists |
| C[S+]([O-])c1ccc2[nH]c(CC(O)(CC(C)(C)c3cc(F)cc4c3OCC4)C(F)(F)F)cc2c1 (stereo not drawn) [1,1,1-Trifluoro-4-(5-fluoro-2,3-dihydrobenzofuran-7-yl)-2-(5-methanesulfinyl-1H-indol-2-ylmethyl)-4-methylpentan-2-ol] | potent agonists |
| CSc1cc2c(c(C(C)(C)CC(O)(Cc3cc4cc(Cl)ncc4[nH]3)C(F)(F)F)c1)OCC2 (stereo not drawn) [2-(5-Chloro-1H-pyrrolo[2,3-c]pyridin-2-ylmethyl)-1,1,1-trifluoro-4-methyl-4-(5-methylsulfanyl-2,3-dihydrobenzofuran-7-yl)pentan-2-ol] | potent agonists |
| CC(C)(CC(O)(Cc1cc2cc(-c3cccnc3)ccc2[nH]1)C(F)(F)F)c1cc(F)cc2c1OCC2 (stereo not drawn) [1,1,1-Trifluoro-4-(5-fluoro-2,3-dihydrobenzofuran-7-yl)-4-methyl-2-(5-pyridin-3-yl-1H-indol-2-ylmethyl)pentan-2-ol] | potent agonists |
| CC(C)(CC(O)(Cc1cc2nc(-c3ccccc3)ncc2[nH]1)C(F)(F)F)c1cc(Cl)cc2c1OCC2 (stereo not drawn) [4-(5-Chloro-2,3-dihydrobenzofuran-7-yl)-1,1,1-trifluoro-4-methyl-2-(2-phenyl-5H-pyrrolo[3,2-d]pyrimidin-6-ylmethyl)pentan-2-ol] | potent agonists |
| CC(C)(CC(O)(Cc1cc2cc(Cl)ncc2[nH]1)C(F)(F)F)c1cc(F)ccc1O (stereo not drawn) [2-[3-(5-Chloro-1H-pyrrolo[2,3-c]pyridin-2-ylmethyl)-4,4,4-trifluoro-3-hydroxy-1,1-dimethylbutyl]-4-fluorophenol] | potent agonists |
| Cc1nccc2[nH]c(CC(O)(CC(C)(C)c3cc(-c4cccnc4)ccc3O)C(F)(F)F)cc12 (stereo not drawn) [4-Pyridin-3-yl-2-[4,4,4-trifluoro-3-hydroxy-1,1-dimethyl-3-(4-methyl-1H-pyrrolo[3,2-c]pyridin-2-ylmethyl)butyl]phenol] | potent agonists |
| Cc1ccc(F)c2[nH]c(CC(O)(CC(C)(C)c3cc(S(C)(=O)=O)cc4c3OCC4)C(F)(F)F)cc12 (stereo not drawn) [1,1,1-Trifluoro-2-(7-fluoro-4-methyl-1H-indol-2-ylmethyl)-4-(5-methanesulfonyl-2,3-dihydrobenzofuran-7-yl)-4-methylpentan-2-ol] | potent agonists |
| CC(=O)c1ccc2[nH]c(CC(O)(CC(C)(C)c3cc(Cl)cc4c3OCC4)C(F)(F)F)cc2n1 (stereo not drawn) [1-{2-[4-(5-Chloro-2,3-dihydrobenzofuran-7-yl)-2-hydroxy-4-methyl-2-trifluoromethylpentyl]-1H-pyrrolo[3,2-b]pyridin-5-yl}ethanone] | potent agonists |
| CC(C)(CC(O)(Cc1cc2nc(-c3ccccc3)ncc2[nH]1)C(F)(F)F)c1ccccc1 (stereo not drawn) [1,1,1-Trifluoro-4-methyl-4-phenyl-2-(2-phenyl-5H-pyrrolo[3,2-d]pyrimidin-6-ylmethyl)pentan-2-ol] | potent agonists |
| CC(C)(CC(O)(Cc1cc2cc(N3CCOCC3)ncc2[nH]1)C(F)(F)F)c1cccc(F)c1 (stereo not drawn) [1,1,1-Trifluoro-4-(3-fluorophenyl)-4-methyl-2-(5-morpholin-4-yl-1H-pyrrolo[2,3-c]pyridin-2-ylmethyl)pentan-2-ol] | potent agonists |
| CC(C)(CC(O)(Cc1cc2cc(N3CCCCC3)ncc2[nH]1)C(F)(F)F)c1ccccc1 (stereo not drawn) [1,1,1-Trifluoro-4-methyl-4-phenyl-2-(5-piperidin-1-yl-1H-pyrrolo[2,3-c]pyridin-2-ylmethyl)pentan-2-ol] | potent agonists |
| COc1ccc(-c2ccccc2C#N)cc1C(C)(C)CC(O)(Cc1cc2cc(N3CCCCC3)ncc2[nH]1)C(F)(F)F (stereo not drawn) [4′-Methoxy-3′-[4,4,4-trifluoro-3-hydroxy-1,1-dimethyl-3-(5-piperidin-1-yl-1H-pyrrolo[2,3-c]pyridin-2-ylmethyl)butyl]biphenyl-2-carbonitrile] | potent agonists |
| CC(C)C(O)(Cc1cc2cc(-c3ccccc3)ncc2[nH]1)CC(C)(C)c1cc(Cl)cc2c1OCC2 (stereo not drawn) [5-(5-Chloro-2,3-dihydrobenzofuran-7-yl)-2,5-dimethyl-3-(5-phenyl-1H-pyrrolo[2,3-c]pyridin-2-ylmethyl)hexan-3-ol] | agonists |
| COc1ccc(-c2cncnc2)cc1C(C)(C)CC(O)(Cc1cc2ccncc2[nH]1)C(F)(F)F (stereo not drawn) [1,1,1-Trifluoro-4-(2-methoxy-5-pyrimidin-5-ylphenyl)-4-methyl-2-(1H-pyrrolo[2,3-c]pyridin-2-ylmethyl)pentan-2-ol] | potent agonists |
| CC(C)(CC(O)(Cc1cc2nc(-c3ccccc3)ncc2[nH]1)C(F)(F)F)c1cccc(F)c1 (stereo not drawn) [1,1,1-Trifluoro-4-(3-fluorophenyl)-4-methyl-2-(2-phenyl-5H-pyrrolo[3,2-d]pyrimidin-6-ylmethyl)pentan-2-ol] | potent agonists |
| CN(C)c1cc2cc(CC(O)(CC(C)(C)c3ccccc3)C(F)(F)F)[nH]c2cn1 (stereo not drawn) [2-(5-Dimethylamino-1H-pyrrolo[2,3-c]pyridin-2-ylmethyl)-1,1,1-trifluoro-4-methyl-4-phenylpentan-2-ol] | potent agonists |
| CC(C)(CC(O)(Cn1ccc2c1CCCC2=O)C(F)(F)F)c1cc(-c2cncnc2)cc2c1OCC2 (stereo not drawn) [1-[2-Hydroxy-4-methyl-4-(5-pyrimidin-5-yl-2,3-dihydrobenzofuran-7-yl)-2-trifluoromethylpentyl]-1,5,6,7-tetrahydroindol-4-one] | agonists |
| CC(C)(CC(O)(Cc1cc2cc(-c3ccccc3)nnc2[nH]1)C(F)(F)F)c1ccccc1 (stereo not drawn) [1,1,1-Trifluoro-4-methyl-4-phenyl-2-(3-phenyl-7H-pyrrolo[2,3-c]pyridazin-6-ylmethyl)pentan-2-ol] | potent agonists |
| CC(C)(CC(O)(Cc1cc2nc(CO)ccc2[nH]1)C(F)(F)F)c1cc(Cl)cc2c1OCC2 (stereo not drawn) [4-(5-Chloro-2,3-dihydrobenzofuran-7-yl)-1,1,1-trifluoro-2-(5-hydroxymethyl-1H-pyrrolo[3,2-b]pyridin-2-ylmethyl)-4-methylpentan-2-ol] | potent agonists |
| CC(C)(CC(O)(Cc1cc2cc(N3CCOCC3)ncc2[nH]1)C(F)(F)F)c1ccccc1 (stereo not drawn) [1,1,1-Trifluoro-4-methyl-2-(5-morpholin-4-yl-1H-pyrrolo[2,3-c]pyridin-2-ylmethyl)-4-phenylpentan-2-ol] | potent agonists |
| CC(C)(CC(O)(Cc1cc2cc(N3CCOCC3)ncc2[nH]1)C(F)(F)F)c1ccc(F)cc1 (stereo not drawn) [1,1,1-Trifluoro-4-(4-fluorophenyl)-4-methyl-2-(5-morpholin-4-yl-1H-pyrrolo[2,3-c]pyridin-2-ylmethyl)pentan-2-ol] | potent agonists |
| Cc1cncc2[nH]c(CC(O)(CC(C)(C)c3cccc(F)c3)C(F)(F)F)cc12 (stereo not drawn) [1,1,1-Trifluoro-4-(3-fluorophenyl)-4-methyl-2-(4-methyl-1H-pyrrolo[2,3-c]pyridin-2-ylmethyl)pentan-2-ol] | potent agonists |
